PMC8510601, “Discovery of benzamide-hydroxypyridinone hybrids as potent multi-targeting agents for the treatment of Alzheimer's disease” (Journal of Enzyme Inhibition and Medicinal Chemistry, 2021)
Counter-ions that a name gives are not always drawn. Like-named read-outs stand apart in the source and are kept apart here.

Assays:
[1] = in vitro; conditions: PAMPA
[2] = literature value, cited from earlier work
[3] = DFP^d: KCl (0.1 M); cited from earlier work
[4] = pKa determination by spectrophotometric titration; conditions: pH range 2.0–10.5, 25 °C
[5] = DFP^d: KCl (0.1 M); cited from earlier work; remark: listed apart in the source
[6] = Iron-chelating activity test: affinity constants for Fe3+ and pFe3+
[7] = PAMPA-BBB assay; conditions: for Prediction of CNS penetrability: from Pe in PAMPA-BBB
[8] = test system: PC12 cells; experiment: Intracellular ROS detection (DCFH-DA), Aβ1–42-induced; type: cell-based; conditions: 8g and Aβ1–42 10 μM, flow cytometry
Description: Aβ deposition and peroxidation are also important clinical features of AD. Therefore, we subsequently assessed the antioxidation of compound 8g, using 2′,7′-dichlorofluorescin diacetate (DCFH-DA) to detect intracellular ROS generation on the PC12 cell line derived from neural pheochromocytoma. Based on our previous research, the concentration of 10 μM of compound 8g was chosen in this test. […]
8. Intracellular ROS detection

[9] = test system: scopolamine-induced cognitive dysfunction ICR mice; experiment: Morris water maze test, scopolamine-induced cognitive dysfunction; conditions: MWM last day, test agent 15 mg/kg i.p. + scopolamine 15 mg/kg i.p., 15 days, n = 8, mean ± SEM
Description: The MWM test was performed at the last 5 days including two days of memory and learning training, three days of cognitive assessment. On the fifth day, a probe training trial was performed and analysed. […] However, the dosage of scopolamine was increased from 5 mg/kg to 15 mg/kg to achieve a better modelling effect.
Cognitive and memory assays in vivo
The adult female ICR mice (8-10 weeks old, weight 20-25 g) were obtained from the
Zhejiang Academy of Medical Sciences (Hangzhou, China).
agents were prepared as clear injections, consisting of 10% DMSO, 20%
(2-hydroxypropyl)-β-cyclodextrin and PBS. The mice were trained to find the platform (10 cm
diameter) in the opaque circular pool (120 cm diameter, 60 cm height) filled with water (40 cm,
depth), which was described in detail in our previous study.[1] All mice received at least one
training session daily in four quadrants for four consecutive days before testing of finding the
The mice were randomly divided into four groups: (i) control group (PBS of 20%
were intraperitoneally injected with indicated compounds or solvent 30 min before intraperitoneal
injection with scopolamine or PBS once a day for 15 consecutive days. The Morris water maze
test was performed at the last 5 days.

[10] = molecular target: T1, MAO-B (Homo sapiens, UniProt P27338); experiment: Human MAO-B inhibition assay; type: biochemical; conditions: for inhibition at 0.1 µM: read-out: Inhibitory rate ± SEM (%, 100 nM); for inhibition at 1 µM: read-out: Inhibitory rate ± SEM (%, 1 μM); for IC50: ± SEM, read-out: IC50 against MAO-B
T1 sequence (P27338 1-520): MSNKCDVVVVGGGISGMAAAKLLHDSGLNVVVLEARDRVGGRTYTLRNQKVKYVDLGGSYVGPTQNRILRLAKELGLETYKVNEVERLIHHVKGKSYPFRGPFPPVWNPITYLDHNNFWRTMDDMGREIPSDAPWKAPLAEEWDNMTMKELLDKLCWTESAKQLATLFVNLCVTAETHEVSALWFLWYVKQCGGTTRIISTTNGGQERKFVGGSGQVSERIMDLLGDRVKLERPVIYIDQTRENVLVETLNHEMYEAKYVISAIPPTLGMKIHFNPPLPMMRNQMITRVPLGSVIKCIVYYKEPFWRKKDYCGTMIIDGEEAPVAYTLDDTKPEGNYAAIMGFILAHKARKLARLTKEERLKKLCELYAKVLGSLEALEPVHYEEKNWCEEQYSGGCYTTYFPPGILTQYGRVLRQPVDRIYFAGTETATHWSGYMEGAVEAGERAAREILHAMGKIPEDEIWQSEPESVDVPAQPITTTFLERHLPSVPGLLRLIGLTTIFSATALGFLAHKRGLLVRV

[11] = molecular target: T2, MAO-A (Homo sapiens, UniProt P21397); experiment: Human MAO-A inhibitory assay; type: biochemical; conditions: read-out: IC50 ± SEM MAO-A
T2 sequence (P21397 1-527): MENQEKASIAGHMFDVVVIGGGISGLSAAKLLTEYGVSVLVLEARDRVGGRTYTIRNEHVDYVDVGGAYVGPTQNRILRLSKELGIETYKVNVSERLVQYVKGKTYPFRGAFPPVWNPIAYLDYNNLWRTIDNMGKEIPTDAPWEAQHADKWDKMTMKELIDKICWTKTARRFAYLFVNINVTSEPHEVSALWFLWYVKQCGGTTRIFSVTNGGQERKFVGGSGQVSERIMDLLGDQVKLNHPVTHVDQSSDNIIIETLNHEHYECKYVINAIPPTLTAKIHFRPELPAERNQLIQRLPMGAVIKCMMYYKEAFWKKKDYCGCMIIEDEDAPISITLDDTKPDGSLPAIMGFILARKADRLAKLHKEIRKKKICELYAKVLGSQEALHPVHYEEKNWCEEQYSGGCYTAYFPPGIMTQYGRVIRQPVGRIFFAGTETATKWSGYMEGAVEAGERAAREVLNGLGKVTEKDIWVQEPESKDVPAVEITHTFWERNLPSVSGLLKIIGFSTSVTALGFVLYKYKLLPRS

[12] = pH 7.4, [Fe3+]total = 10^−6 M, [ligand]total = 10^−5 M, calculated from pKa and log β measured in KCl/DMSO
[13] = 0.1 M KCl aqueous solution, KCl (0.1 M)
[14] = 0.1 M KCl aqueous solution, pKa2, KCl (0.1 M)

Row | pKa [4, 13] | pKa [4, 14] | inhibition at 0.1 µM ([10]; 100 nM) | inhibition at 1 µM ([10]; 1 μM) | IC50 [10] | melting point | Compound | Log β2 ([6]; KCl (0.1 M): DMSO = 3:2 (v/v)) | Log β3 ([6]; KCl (0.1 M): DMSO = 3:2 (v/v)) | Log β1 ([6]; KCl (0.1 M): DMSO = 9:1 (v/v)) | pFe^3+ [6, 12] | Distance to the target [9] | Entries to the target [9] | other results
1 |  |  |  |  |  |  | Nc1c2c(nc3ccccc13)CCCC2 [Tacrine] |  |  |  |  |  |  | Papp at 6 h, 25 μg/mL [1]: 4.12 ± 0.45 ×10⁻⁶ cm/s; Pe ([2]; footnote b): 5.3 ± 0.19^b 10^–6 cm/s
2 |  |  |  |  |  |  | Cc1c(O)c(=O)ccn1C [DFP, Deferiprone, reference compound] | 26.04 | 34.84 | 14.75 | 18.24 |  |  | pKa1 [3]: 3.61; pKa2 [3]: 9.78; pKa ([4]; KCl (0.1 M)): 3.64; pKa2 ([4]; KCl (0.1 M)): 9.79; Log β1 [5]: 15.03; Log β2 [5]: 27.42; Log β3 [5]: 37.35; pFe^3+ [5]: 20.74; pFe^3+ ([6]; DFP^a: from constants measured in KCl (0.1 M)): 20.12; Log β1 ([6]; DFP^a: measured in KCl (0.1 M)): 14.86; Log β2 ([6]; DFP^a: measured in KCl (0.1 M)): 27.13; Log β3 ([6]; DFP^a: measured in KCl (0.1 M)): 36.76
3 |  |  |  |  |  |  | CN1C(C(=O)Nc2ccccn2)=C(O)c2ccccc2S1(=O)=O [Piroxicam] |  |  |  |  |  |  | Papp [1]: 2.05 ± 0.04 ×10⁻⁶ cm/s; Pe ([2]; footnote c): 2.5^c 10^–6 cm/s; Prediction of CNS penetrability [7]: CNS ± (CNS ±: 2.0 < Pe (10^–6 cm/s) < 4.0, uncertain BBB permeability)
4 |  |  |  |  |  |  | Aβ1–42: Aβ peptide used to induce intracellular ROS in PC12 cells (model group) [reference compound] |  |  |  |  |  |  | ROS %Gated (percentage of positive cells in the total number of cells) [8]: 44.58%; ROS Mean (average fluorescence intensity of all cells) [8]: 131.56
5 |  |  |  |  |  |  | C#CCN(C)Cc1ccccc1 [Pargyline, reference compound] |  |  |  |  | 2.89 ± 0.69 m | 3.85 ± 0.48 | inhibition at 0.1 µM [10]: 50.3 ± 0.73%; inhibition at 1 µM [10]: 91.59 ± 0.09%
6 | 3.38 | 9.69 | > 50% | 78.29 ± 0.16% | 68.4 ± 6.05 nM | 246 to 248 °C | Cc1c(O)c(=O)ccn1CCNC(=O)c1ccc(OCc2ccccc2)cc1 [Compound 8g] | 26.04 | 35.65 | 14.60 | 19.31 | 2.64 ± 0.52 m | 4.12 ± 0.40 | Papp at 6 h, 25 μg/mL ([7]; PAMPA): 4.07 ± 0.44 ×10⁻⁶ cm/s; Prediction of CNS penetrability [7]: CNS + (CNS +: Pe (10^–6 cm/s) > 4.0, high BBB permeability); Pe ± SEM ([7]; porcine brain lipid, 6 h at 25 °C, eight independent experiments): > 4.0 10^–6 cm/s; ROS %Gated (percentage of positive cells in the total number of cells) [8]: 33.32%; ROS Mean (average fluorescence intensity of all cells) [8]: 106.35; IC50 [11]: 14600 ± 231 nM; SI (selectivity index) = IC50 (MAO-A)/IC50 (MAO-B) ([10]; selectivity for the MAO-B isoform): 213
7 |  |  |  |  |  |  | CN1[C@@H]2C[C@@H](OC(=O)[C@H](CO)c3ccccc3)C[C@H]1[C@@H]1O[C@@H]12 [scopolamine, Scopolamine hydrobromide] |  |  |  |  | 7.74 ± 1.23 m | 2.00 ± 0.50 | Latency to the target [9]: 41.40 ± 5.87 s
8 | 3.47 | 9.68 | 44.38 ± 0.23% | 56.43 ± 0.24% | 121.5 ± 0.86 nM | 156 to 158 °C | Cc1c(O)c(=O)ccn1CCNC(=O)c1ccccc1O [Compound 8w] | 25.69 | 34.63 | 14.45 | 18.34 |  |  | 
9 | 3.27 | 9.8 | 48.1 ± 1.57% | 66.75 ± 0.34% | 119 ± 2.76 nM | 246 to 248 °C | CCOc1ccc(C(=O)NCCn2ccc(=O)c(O)c2C)cc1 [Compound 8h] | 26.06 | 35.33 | 14.67 | 18.67 |  |  | 
10 | 3.41 | 9.84 | > 50% | 53.41 ± 0.31% | 89.1 ± 10.1 nM | 214 to 243 °C | CCCOc1ccc(C(=O)NCCn2ccc(=O)c(O)c2C)cc1 [Compound 8i] | 25.98 | 35.18 | 14.56 | 18.40 |  |  | 
